Consider 16 compounds from patent US9469617B2, “Molecules having certain pesticidal utilities, and intermediates, compositions, and processes related thereto” (priority 2014, dated 2016).

Common to all, as to format: in vivo
Data set [1] has as its system Cabbage Looper (CL) (Trichoplusia ni). As to the kind of experiment: Bioassay on Cabbage Looper (CL), 128-well diet tray assay. Conditions: 168 h, Table ABC, 50 μg/cm^2 on artificial diet, second instar larvae, five to seven days, 25° C., read-out: CL % Control (or Mortality) rating. In a few lines: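 Second-instar larvae (one to five per well) placed on artificial diet treated with 50 μg/cm^2 compound in 90:10 acetone-water, dried, eight wells per compound. Held at 25 °C, 14:10 light-dark for five to seven days; percent mortality per well, averaged over the eight wells.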

Data set [2] concerns Yellow Fever Mosquito (YFM) (Aedes aegypti). As to the kind of experiment: Bioassay on Yellow Fever Mosquito (YFM) larvae, 96-well plate. Conditions: Table ABC; about 1 day-old larvae, master plate 4000 ppm in DMSO diluted, scored on mortality after 3 days. In a few lines: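 Compounds from 4000 ppm DMSO master solutions, diluted in 90:10 water:acetone, dispensed into wells and infested with about 1-day-old larvae in liver-powder water. Held covered at room temperature for 3 days, then each well scored for mortality; 6 replicate plates per master.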

For data set [3], the system named is Beet Armyworm (BAW) (Spodoptera exigua). As to the kind of experiment: Bioassay on Beet Armyworm (BAW), 128-well diet tray assay. The settings on record: 168 h, Table ABC, 50 μg/cm^2 on artificial diet, second instar larvae, five to seven days, 25° C., read-out: BAW % Control (or Mortality) rating. In a few lines: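 Artificial diet was surface-treated with 50 μg/cm^2 compound in 90:10 acetone-water and dried, then infested with one to five second-instar larvae per well. Trays were held 5–7 days at 25° C, 14:10 light-dark. Percent mortality was averaged over eight wells.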

The term mortality denotes the share of the test organisms that died. On to `CC(C)c1ccccc1NC(=S)NC(=O)NC1CCc2cc(-c3ncn(-c4ccc(OC(F)(F)F)cc4)n3)ccc2C1` (stereo not drawn) [P22, 1-[(2-Isopropylphenyl)carbamothioyl]-3-[6-[1-[4-(trifluoromethoxy)phenyl]-1,2,4-triazol-3-yl]tetralin-2-yl]urea], for which the mortality at 50 µg/cm2 in data set [1] and in data set [3] was 50 to 100% throughout. Also, in data set [2], the “YFM % Control (or Mortality) rating” value was “A (80-100)”.

Take `CC(C)c1ccccc1N1C(=O)CS/C1=N\C(=O)NC1CCc2cc(-c3ncn(-c4ccc(OC(F)(F)F)cc4)n3)ccc2C1` (stereo not drawn) [P24, (Z)-1-(3-(2-Isopropylphenyl)-4-oxothiazolidin-2-ylidene)-3-(6-(1-(4-(trifluoromethoxy)phenyl)-1H-1,2,4-triazol-3-yl)-1,2,3,4-tetrahydronaphthalen-2-yl)urea]: the mortality at 50 µg/cm2 in data set [1] and in data set [3] was 50 to 100% throughout. In addition, in data set [2], the “YFM % Control (or Mortality) rating” value is given as “A (80-100)”.

With `Cc1ccc(C)c(NC(=S)NC(=O)NC2CCc3cc(-c4ncn(-c5ccc(OC(F)(F)F)cc5)n4)ccc3C2)c1` (stereo not drawn) [P25, 1-[(2,5-Dimethylphenyl)carbamothioyl]-3-[6-[1-[4-(trifluoromethoxy)phenyl]-1,2,4-triazol-3-yl]tetralin-2-yl]urea], the mortality at 50 µg/cm2 in data set [1] and in data set [3] was 50 to 100% throughout. In data set [2], the “YFM % Control (or Mortality) rating” value is “A (80-100)”.

Turning to `CC(C)c1ccc(Cl)cc1NC(=S)NC(=O)NC1CCc2cc(-c3ncn(-c4ccc(OC(F)(F)F)cc4)n3)ccc2C1` (stereo not drawn) [P26, 1-[(5-Chloro-2-isopropyl-phenyl)carbamothioyl]-3-[6-[1-[4-(trifluoromethoxy)phenyl]-1,2,4-triazol-3-yl]tetralin-2-yl]urea], the mortality at 50 µg/cm2 in data set [1] and in data set [3] was 50 to 100% throughout. The “YFM % Control (or Mortality) rating” value in data set [2] is “A (80-100)”.

In the case of `CCCc1ccc(C)cc1NC(=S)NC(=O)NC1CCc2cc(-c3ncn(-c4ccc(OC(F)(F)F)cc4)n3)ccc2C1` (stereo not drawn) [P27, 1-[(5-Methyl-2-propyl-phenyl)carbamothioyl]-3-[6-[1-[4-(trifluoromethoxy)phenyl]-1,2,4-triazol-3-yl]tetralin-2-yl]urea], the mortality at 50 µg/cm2 in data set [1] and in data set [3] was 50 to 100% throughout. In data set [2], the “YFM % Control (or Mortality) rating” value is listed as “A (80-100)”.

`COc1ccc(NC(=S)NC(=O)NC2CCc3cc(-c4ncn(-c5ccc(OC(F)(F)F)cc5)n4)ccc3C2)c(C)c1` (stereo not drawn) [P28, 1-[(4-Methoxy-2-methyl-phenyl)carbamothioyl]-3-[6-[1-[4-(trifluoromethoxy)phenyl]-1,2,4-triazol-3-yl]tetralin-2-yl]urea]: the mortality at 50 µg/cm2 in data set [1] and in data set [3] was 50 to 100% throughout. In addition, in data set [2], the “YFM % Control (or Mortality) rating” value is on record as “A (80-100)”.

Consider `CCc1cccc(C)c1NC(=S)NC(=O)NC1CCc2cc(-c3ncn(-c4ccc(OC(F)(F)F)cc4)n3)ccc2C1` (stereo not drawn) [P29, 1-[(2-Ethyl-6-methyl-phenyl)carbamothioyl]-3-[6-[1-[4-(trifluoromethoxy)phenyl]-1,2,4-triazol-3-yl]tetralin-2-yl]urea], for which the mortality at 50 µg/cm2 in data set [1] and in data set [3] was 50 to 100% throughout. The “YFM % Control (or Mortality) rating” value in data set [2] is “A (80-100)”.

On to `Cc1ccc(Cl)c(NC(=S)NC(=O)NC2CCc3cc(-c4ncn(-c5ccc(OC(F)(F)F)cc5)n4)ccc3C2)c1` (stereo not drawn) [P30, 1-[(2-Chloro-5-methyl-phenyl)carbamothioyl]-3-[6-[1-[4-(trifluoromethoxy)phenyl]-1,2,4-triazol-3-yl]tetralin-2-yl]urea], for which the mortality at 50 µg/cm2 in data set [1] and in data set [3] was 50 to 100% in each case. Further, the “YFM % Control (or Mortality) rating” value in data set [2] is on record as “A (80-100)”.

On to `COc1ccc(C)cc1NC(=S)NC(=O)NC1CCc2cc(-c3ncn(-c4ccc(OC(F)(F)F)cc4)n3)ccc2C1` (stereo not drawn) [P31, 1-[(2-Methoxy-5-methyl-phenyl)carbamothioyl]-3-[6-[1-[4-(trifluoromethoxy)phenyl]-1,2,4-triazol-3-yl]tetralin-2-yl]urea], for which the mortality at 50 µg/cm2 in data set [1] and in data set [3] was 50 to 100% throughout. In addition, in data set [2], the “YFM % Control (or Mortality) rating” value was “A (80-100)”.

In the case of `Cc1ccc(C)c(N2C(=O)CS/C2=N\C(=O)NC2CCc3cc(-c4ncn(-c5ccc(OC(F)(F)F)cc5)n4)ccc3C2)c1` (stereo not drawn) [P32, (Z)-1-(3-(2,5-Dimethylphenyl)-4-oxothiazolidin-2-ylidene)-3-(6-(1-(4-(trifluoromethoxy)phenyl)-1H-1,2,4-triazol-3-yl)-1,2,3,4-tetrahydronaphthalen-2-yl)urea], the mortality at 50 µg/cm2 in data set [1] and in data set [3] was 50 to 100% throughout. The “YFM % Control (or Mortality) rating” value in data set [2] is “B (More than 0-Less than 80)”.

Turning to `CC(C)c1ccc(Cl)cc1N1C(=O)CS/C1=N\C(=O)NC1CCc2cc(-c3ncn(-c4ccc(OC(F)(F)F)cc4)n3)ccc2C1` (stereo not drawn) [P33, (Z)-1-(3-(5-Chloro-2-isopropylphenyl)-4-oxothiazolidin-2-ylidene)-3-(6-(1-(4-(trifluoromethoxy)phenyl)-1H-1,2,4-triazol-3-yl)-1,2,3,4-tetrahydronaphthalen-2-yl)urea], the mortality at 50 µg/cm2 in data set [1] and in data set [3] was 50 to 100% each time. Moreover, the “YFM % Control (or Mortality) rating” value in data set [2] was “A (80-100)”.

In the case of `CCCc1ccc(C)cc1N1C(=O)CS/C1=N\C(=O)NC1CCc2cc(-c3ncn(-c4ccc(OC(F)(F)F)cc4)n3)ccc2C1` (stereo not drawn) [P34, (Z)-1-(3-(5-Methyl-2-propylphenyl)-4-oxothiazolidin-2-ylidene)-3-(6-(1-(4-(trifluoromethoxy)phenyl)-1H-1,2,4-triazol-3-yl)-1,2,3,4-tetrahydronaphthalen-2-yl)urea], the mortality at 50 µg/cm2 in data set [1] and in data set [3] was 50 to 100% each time. Moreover, the “YFM % Control (or Mortality) rating” value in data set [2] was “D (No activity noticed in this bioassay)”.

For the compound `COc1ccc(N2C(=O)CS/C2=N\C(=O)NC2CCc3cc(-c4ncn(-c5ccc(OC(F)(F)F)cc5)n4)ccc3C2)c(C)c1` (stereo not drawn) [P35, (Z)-1-(3-(4-methoxy-2-methylphenyl)-4-oxothiazolidin-2-ylidene)-3-(6-(1-(4-(trifluoromethoxy)phenyl)-1H-1,2,4-triazol-3-yl)-1,2,3,4-tetrahydronaphthalen-2-yl)urea], the mortality at 50 µg/cm2 in data set [1] and in data set [3] was 50 to 100% throughout. For the same compound, the “YFM % Control (or Mortality) rating” value in data set [2] is “A (80-100)”.

In the case of `CCc1cccc(C)c1N1C(=O)CS/C1=N\C(=O)NC1CCc2cc(-c3ncn(-c4ccc(OC(F)(F)F)cc4)n3)ccc2C1` (stereo not drawn) [P36, (Z)-1-(3-(2-Ethyl-6-methylphenyl)-4-oxothiazolidin-2-ylidene)-3-(6-(1-(4-(trifluoromethoxy)phenyl)-1H-1,2,4-triazol-3-yl)-1,2,3,4-tetrahydronaphthalen-2-yl)urea], the mortality at 50 µg/cm2 in data set [1] and in data set [3] was 50 to 100% in each case. In data set [2], the “YFM % Control (or Mortality) rating” value is reported as “A (80-100)”.

`Cc1ccc(Cl)c(N2C(=O)CS/C2=N\C(=O)NC2CCc3cc(-c4ncn(-c5ccc(OC(F)(F)F)cc5)n4)ccc3C2)c1` (stereo not drawn) [P37, (Z)-1-(3-(2-Chloro-5-methylphenyl)-4-oxothiazolidin-2-ylidene)-3-(6-(1-(4-(trifluoromethoxy)phenyl)-1H-1,2,4-triazol-3-yl)-1,2,3,4-tetrahydronaphthalen-2-yl)urea]: the mortality at 50 µg/cm2 in data set [1] and in data set [3] was 50 to 100% each time. Also, in data set [2], the “YFM % Control (or Mortality) rating” value is given as “D (No activity noticed in this bioassay)”.

In the case of `COc1ccc(C)cc1N1C(=O)CS/C1=N\C(=O)NC1CCc2cc(-c3ncn(-c4ccc(OC(F)(F)F)cc4)n3)ccc2C1` (stereo not drawn) [P38, (Z)-1-(3-(2-Methoxy-5-methylphenyl)-4-oxothiazolidin-2-ylidene)-3-(6-(1-(4-(trifluoromethoxy)phenyl)-1H-1,2,4-triazol-3-yl)-1,2,3,4-tetrahydronaphthalen-2-yl)urea], the mortality at 50 µg/cm2 in data set [1] and in data set [3] was 50 to 100% each time. Moreover, the “YFM % Control (or Mortality) rating” value in data set [2] was “A (80-100)”.
